Measured values as given in PubChem BioAssay AID330 (DTP/NCI, 2004).
Values joined by “and” are separate entries in the source; they are usually repeats but may differ in a detail not shown here. Equal values may be shown once. Inconclusive results and toxic doses are left out. Rule for the calls: active = survival T/C of 150% or more; inactive = T/C below 125% in these data.

Test system: P388 leukemia ip, CD2F1 mice, survival T/C
Assay: NCI In Vivo Anticancer Drug Screen. Data for tumor model P388 Leukemia (intraperitoneal) in CD2F1 (CDF1) mice
Conditions: endpoint: median survival time, higher = longer survival
Method in brief: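 Mice carrying the transplanted tumor received test compound or vehicle. Survival was recorded in each group, and the value is the treated-group measurement divided by that of the vehicle-treated control group.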

[1] = dose: 6.25 mg/kg/injection, schedule: Q01DX009 (ip), vehicle: saline
[2] = dose: 12.5 mg/kg/injection, schedule: Q01DX009 (ip), vehicle: saline
[3] = dose: 25.0 mg/kg/injection, schedule: Q01DX009 (ip), vehicle: saline
[4] = dose: 50.0 mg/kg/injection, schedule: Q01DX009 (ip), vehicle: saline
[5] = dose: 100.0 mg/kg/injection, schedule: Q01DX009 (ip), vehicle: saline
[6] = dose: 200.0 mg/kg/injection, schedule: Q01DX009 (ip), vehicle: saline
[7] = dose: 60.0 mg/kg/injection, schedule: Q01DX005 (ip), vehicle: saline with Tween-80
[8] = dose: 120.0 mg/kg/injection, schedule: Q01DX005 (ip), vehicle: saline with Tween-80
[9] = dose: 240.0 mg/kg/injection, schedule: Q01DX005 (ip), vehicle: saline with Tween-80
[10] = dose: 100.0 mg/kg/injection, schedule: Q04DX003 (ip), vehicle: saline
[11] = dose: 200.0 mg/kg/injection, schedule: Q04DX003 (ip), vehicle: saline
[12] = dose: 50.0 mg/kg/injection, schedule: Q01DX009 (ip), vehicle: Klucel (hydroxypropylcellulose) (HPC)
[13] = dose: 100.0 mg/kg/injection, schedule: Q01DX009 (ip), vehicle: Klucel (hydroxypropylcellulose) (HPC)

Measured: T/C

CC1=C(C#N)C(=O)N(C)C(=O)C1(Cl)Cl
inactive: dose: 100.0 mg/kg/injection, schedule: Q04DX002 (ip), vehicle: Klucel (hydroxypropylcellulose) (HPC) 98 % of control | dose: 200.0 mg/kg/injection, schedule: Q04DX002 (ip), vehicle: Klucel (hydroxypropylcellulose) (HPC) 98 % of control

CC(=O)Nc1ccc(Nc2ccc(NCCO)c3c2C(=O)c2c(O)ccc(O)c2C3=O)cc1
inactive: dose: 25.0 mg/kg/injection, schedule: Q04DX002 (ip), vehicle: saline with Tween-80 96 % of control | dose: 50.0 mg/kg/injection, schedule: Q04DX002 (ip), vehicle: saline with Tween-80 96 % of control | dose: 100.0 mg/kg/injection, schedule: Q04DX002 (ip), vehicle: saline with Tween-80 100 % of control | dose: 200.0 mg/kg/injection, schedule: Q04DX002 (ip), vehicle: saline with Tween-80 100 % of control

Cc1cc[n+](C)c(-c2ccccc2)c1
inactive: [1] 90 % of control | [2] 104 % of control | [3] 113 % of control

COc1ccc(C)cc1NC(=S)NC(=O)/C=C/c1ccccc1
inactive: [3] 97 % of control | [4] 87 % of control | [5] 96 % of control | [6] 98 % of control

CSc1nnc(CCC(=O)Nc2c(C)cccc2C(C)(C)C)o1
inactive: [7] 104 % of control | [8] 99 % of control | [9] 91 % of control

CN(C)/C=C1\CCCCC1=C(C#N)C#N
inactive: [10] 100 % of control | [11] 93 % of control | dose: 400.0 mg/kg/injection, schedule: Q04DX003 (ip), vehicle: saline 95 % of control

CC(C)(C)NC(=O)c1cccc(C(N)=O)n1
inactive: [7] 94 % of control | [8] 93 % of control | [9] 97 % of control

CN(C)c1nnnn1-c1ccccc1
inactive: [7] 104 % of control | [8] 107 % of control | [9] 107 % of control

O=C(C[n+]1ccccc1Br)c1cccc([N+](=O)[O-])c1
inactive: [1] 103 % of control | [2] 107 % of control | [3] 99 % of control | [4] 103 % of control

CCC(C)C(NC(=O)CCl)C(=O)O (centres undefined)
inactive: [4] 99 % of control | [5] 96 % of control | [6] 101 % of control

COc1ccccc1C1(O)c2ccccc2C(=O)c2ccccc21
inactive: dose: 50.0 mg/kg/injection, schedule: Q01DX005 (ip), vehicle: Klucel (hydroxypropylcellulose) (HPC) 101 % of control | dose: 100.0 mg/kg/injection, schedule: Q01DX005 (ip), vehicle: Klucel (hydroxypropylcellulose) (HPC) 99 % of control | dose: 200.0 mg/kg/injection, schedule: Q01DX005 (ip), vehicle: Klucel (hydroxypropylcellulose) (HPC) 103 % of control

NC1CCCCCCC1O (centres undefined)
inactive: dose: 5.0 mg/kg/injection, schedule: Q01DX009 (ip), vehicle: saline with Tween-80 104 % of control | dose: 5.0 mg/kg/injection, schedule: Q04DX003 (ip), vehicle: saline 104 % of control | dose: 10.0 mg/kg/injection, schedule: Q01DX009 (ip), vehicle: saline with Tween-80 100 % of control | dose: 10.0 mg/kg/injection, schedule: Q04DX003 (ip), vehicle: saline 100 % of control | dose: 20.0 mg/kg/injection, schedule: Q01DX009 (ip), vehicle: saline with Tween-80 104 % of control | dose: 20.0 mg/kg/injection, schedule: Q04DX003 (ip), vehicle: saline 100 % of control

OCc1c(CO)c(C(F)(F)F)n2c1CCC2
inactive: [12] 104 % of control | [13] 104 % of control

CC(C)c1nc2c(n1Cc1ccccc1)C=C(C(=O)c1ccccc1)S(=O)(=O)C(C(=O)c1ccccc1)=C2
inactive: [7] 96 % of control | [8] 90 % of control | [9] 92 % of control

COc1cc(OC)c(NC(=O)CC2SC(N)=NC2=O)cc1Cl (centres undefined)
inactive: [12] 97 % of control | [13] 97 % of control

CCn1c(=O)c2n[nH]nc2n(CCO)c1=O
inactive: [12] 97 % of control | [13] 100 % of control

O=C(OC(c1ccccc1)(C(F)(F)F)C(F)(F)F)c1ccccc1Sc1ccccc1
inactive: dose: 100.0 mg/kg/injection, schedule: Q01DX009 (ip), vehicle: saline with Tween-80 95 % of control | dose: 200.0 mg/kg/injection, schedule: Q01DX009 (ip), vehicle: saline with Tween-80 90 % of control | dose: 400.0 mg/kg/injection, schedule: Q01DX009 (ip), vehicle: saline with Tween-80 95 % of control

CC(C)(N)P(=O)(O)O
inactive: dose: 25.0 mg/kg/injection, schedule: Q01DX009 (ip), vehicle: suspension in saline 96 % of control | dose: 50.0 mg/kg/injection, schedule: Q01DX009 (ip), vehicle: suspension in saline 92 % of control | dose: 100.0 mg/kg/injection, schedule: Q01DX009 (ip), vehicle: suspension in saline 100 % of control | dose: 200.0 mg/kg/injection, schedule: Q01DX009 (ip), vehicle: suspension in saline 106 % of control

CCN(CC)Cc1ccc(N)cc1O
inactive: [4] 106 % of control and 107 % of control | [5] 97 % of control and 98 % of control | [6] 99 % of control and 97 % of control

BrC1=CC(Br)=C2N=C(C(Br)(Br)Br)N=C3N=C(C(Br)(Br)Br)N=C1N32
inactive: dose: 15.0 mg/kg/injection, schedule: Q01DX005 (ip), vehicle: Klucel + Tween-80 106 % of control | dose: 30.0 mg/kg/injection, schedule: Q01DX005 (ip), vehicle: Klucel + Tween-80 109 % of control | dose: 60.0 mg/kg/injection, schedule: Q01DX005 (ip), vehicle: Klucel + Tween-80 103 % of control and 110 % of control

CC(C)(Sc1ccc(Cl)cc1)C(=O)OCCN1CCCCC1
inactive: [7] 91 % of control | [8] 92 % of control | [9] 92 % of control

CCC(C)C1(O)OC2CC3(C)OC(=CC3=O)/C(C)=C\C3OC(=O)C1(C)C32 (centres undefined)
inactive: dose: 10.0 mg/kg/injection, schedule: Q01DX005 (ip), vehicle: saline + alcohol 96 % of control | dose: 20.0 mg/kg/injection, schedule: Q01DX005 (ip), vehicle: saline + alcohol 100 % of control | dose: 40.0 mg/kg/injection, schedule: Q01DX005 (ip), vehicle: saline + alcohol 105 % of control | dose: 80.0 mg/kg/injection, schedule: Q01DX005 (ip), vehicle: saline + alcohol 99 % of control

CC1(C)O[C@@H]2C[C@H]3[C@@H]4CCC5=CC(=O)CC[C@]5(C)[C@@]4(F)[C@@H](O)C[C@]3(C)[C@]2(C(=O)CO)O1
inactive: dose: 12.5 mg/kg/injection, schedule: Q01DX009 (ip), vehicle: saline with Tween-80 109 % of control | dose: 25.0 mg/kg/injection, schedule: Q01DX009 (ip), vehicle: saline with Tween-80 86 % of control

COc1cc2c(cc1O)C1CC(CC3CCCCN31)OC(=O)/C=C\c1ccc(O)c-2c1 (centres undefined)
inactive: dose: 25.0 mg/kg/injection, schedule: Q04DX003 (ip), vehicle: saline 100 % of control | dose: 50.0 mg/kg/injection, schedule: Q04DX003 (ip), vehicle: saline 107 % of control and 109 % of control | [10] 102 % of control and 110 % of control and 121 % of control | [11] 100 % of control and 102 % of control and 105 % of control

CCCCCCCCCCCCCCCCCC[N+](C)(C)C (tested in a mixture with another compound)
inactive: dose: 1.5 mg/kg/injection, schedule: Q01DX009 (ip), vehicle: saline with Tween-80 90 % of control | dose: 3.0 mg/kg/injection, schedule: Q01DX009 (ip), vehicle: saline with Tween-80 113 % of control | [1] 109 % of control | [2] 113 % of control

NS(=O)(=O)c1ccc(NC(=O)CN(C(=O)C(F)(F)F)C2CCCC2)cc1
inactive: [12] 113 % of control | [13] 109 % of control | dose: 200.0 mg/kg/injection, schedule: Q01DX009 (ip), vehicle: Klucel (hydroxypropylcellulose) (HPC) 109 % of control

O=C(O)C(c1ccccc1)c1cccc(C(C(=O)O)c2ccccc2)n1 (centres undefined)
inactive: [7] 105 % of control | [8] 100 % of control | [9] 102 % of control

CC1=C(CO)C(=O)OC(C(C)C2CCC3C4CC5OC56C(O)C(N5CCCCC5)CC(=O)C6(C)C4CCC23C)C1 (centres undefined)
inactive: dose: 7.0 mg/kg/injection, schedule: Q01DX005 (ip), vehicle: Klucel (hydroxypropylcellulose) (HPC) 101 % of control | dose: 14.0 mg/kg/injection, schedule: Q01DX005 (ip), vehicle: Klucel (hydroxypropylcellulose) (HPC) 94 % of control | dose: 28.0 mg/kg/injection, schedule: Q01DX005 (ip), vehicle: Klucel (hydroxypropylcellulose) (HPC) 96 % of control | dose: 56.0 mg/kg/injection, schedule: Q01DX005 (ip), vehicle: Klucel (hydroxypropylcellulose) (HPC) 101 % of control | dose: 112.0 mg/kg/injection, schedule: Q01DX005 (ip), vehicle: Klucel (hydroxypropylcellulose) (HPC) 97 % of control

CCCCCCCCCCN(CCCCCCCCCC)CC(O)c1ccc2nc3c(cc2c1)CCCC3 (centres undefined)
inactive: dose: 12.5 mg/kg/injection, schedule: Q01DX005 (ip), vehicle: saline with Tween-80 101 % of control | dose: 25.0 mg/kg/injection, schedule: Q01DX005 (ip), vehicle: saline with Tween-80 101 % of control | dose: 50.0 mg/kg/injection, schedule: Q01DX005 (ip), vehicle: saline with Tween-80 102 % of control and 94 % of control
